Measured values reported in US20260182575A1, “MOLECULES HAVING PESTICIDAL UTILITY AND INTERMEDIATES AND PROCESSES RELATED THERETO” (CORTEVA AGRISCIENCE LLC, priority 2022, published 2026).

Tests used:
Type in all cases: in vivo
[1] = system: Corn Earworm (Helicoverpa zea, HELIZE, CEW); assay: Bioassay 7: corn earworm, artificial diet, 96 well plate
Protocol: (§1) The test solutions were tested against CEW, FAW, BAW, and SBL using the following procedure: an artificial lepidopteran diet (Multispecies Lepidopteran Diet, Southland Products) was distributed in 96 well plate. Twenty μL of test solution was pipetted onto a cell in the bioassay plate. […] Each treatment was replicated 5 times for each species. Approximately five first instar CEW, FAW, BAW, or SBL larva were placed on top of the diet in each cell and was contained with a clear perforated adhesive lid. Test trays were held at approximately 25° C. and ambient relative humidity prior to grading. After five days, the number of cells where all the larvae were dead were recorded as 100% and averaged across all replicates; then the percent control was measured using Abbott's correction formula (W. S. Abbott, J. Econ. Entomol. 18 (1925), pp. 265-267) as follows:
(§2) where X=No. of live larvae on solvent check and Y=No. of live larvae on treated diet. In Table 7 the “Expected % Control” was calculated using the method described in Colby S. R., Weeds, 1967, 15, 20-22. Bioassay 8: Western Corn Rootworm (Diabrotica virgifera virgifera, DIABVI, “WCR”)

[2] = system: Soybean Looper (Chrysodeixis includens, PSEPIN, SBL); assay: Bioassay 7: soybean looper, artificial diet, 96 well plate; settings: CL
Protocol: as §1, §2

[3] = system: Beet Armyworm (Spodoptera exigua, LAPHEG, BAW); assay: Bioassay 7: beet armyworm, artificial diet, 96 well plate; settings: AI alone at 0.4 wt %
Protocol: as §1, §2

[4] = system: Soybean Looper (Chrysodeixis includens, PSEPIN, SBL); assay: Bioassay 4: soybean looper, artificial diet, 128-cell tray; settings: AI alone
Protocol: (§3) Stock solutions were prepared with F1 as well as for each of the active ingredients individually. Test solutions were prepared from the stock solutions. Test solutions were prepared containing F1, the individual active ingredients, and mixtures of F1 with each of the active ingredients. The test solution for F1 was prepared by adding 500 μL of the stock solution to a 25 mL glass vial, then adding 500 μL of a 9:1 mixture of acetone:water. The individual active ingredients were prepared by adding 500 μL of stock solution to a 25 mL glass vial, then adding 500 μL of a 9:1 mixture of acetone:water. The test solutions containing mixtures of F1, and the individual active ingredients were prepared by adding 500 μL of the active ingredient stock solution to a 25 mL glass vial, followed by 500 μL of the F1 stock solution, creating a test solution containing 0.04% (w/v) of F1 and 0.4% (w/v) of the active ingredient. Each test solution was serially diluted to create desired doses of test solutions (F1 at 0.04% (w/v), 0.004% (w/v), 0.0004% (w/v), 0.00004% (w/v), 0.000004% (w/v), and 0.0000004% (w/v) and active ingredients at 0.4% (w/v), 0.04% (w/v), 0.004% (w/v), 0.0004% (w/v), 0.00004% (w/v), and 0.000004% (w/v)).
(§4) The test solutions were tested against CEW, FAW, and SBL using the following procedure: an artificial lepidopteran diet (Multispecies Lepidopteran Diet, Southland Products) was distributed in 128-cell bioassay trays (Frontier Agricultural Sciences™). 50 μL of test solution was pipetted into a cell in the bioassay tray. (The test solution doses of 0.04% (w/v), 0.004% (w/v), 0.0004% (w/v), 0.00004% (w/v), 0.000004% (w/v), and 0.0000004% (w/v) translated to concentrations of 5, 0.5, 0.05, 0.005, 0.0005, and 0.00005 μg/cm^2 on the diet, respectively.) A reference treatment (solvent check) was treated with the diluent only. Each treatment was replicated 8 times for each species. A 2nd instar CEW, FAW, or SBL larva was placed on top of the diet in each cell and was contained with a clear perforated adhesive lid. Test trays were held at approximately 26° C. and ambient relative humidity (RH) prior to grading.
(§5) After 5 days, the number of live larvae were recorded from each cell and percent control was measured using Abbott's correction formula (W. S. Abbott, J. Econ. Entomol. 18 (1925), pp. 265-267) as follows:
(§6) where X=No. of live larvae on solvent check and Y=No. of live larvae on treated diet. In Table B4 the “Expected % Control” was calculated using the method described in Colby S. R., Weeds, 1967, 15, 20-22. Bioassay 5: Neotropical Brown Stink Bug (Euschistus heros, EUSCHE, “BSB”).

[5] = system: Fall Armyworm (Spodoptera frugiperda, LAPHFR, FAW); assay: Bioassay 4: fall armyworm, artificial diet, 128-cell tray; settings: AI alone
Protocol: as §3, §4, §5, §6

[6] = system: Corn Earworm (Helicoverpa zea, HELIZE, CEW); assay: Bioassay 4: corn earworm, artificial diet, 128-cell tray; settings: AI alone
Protocol: as §3, §4, §5, §6

[7] = system: Western Flower Thrips (Frankliniella occidentalis, FRANOC, WFT); assay: Bioassay 3: western flower thrips, cotton leaf disc dip; settings: 3 days
Protocol: Stock solutions of F1 and various active ingredients were prepared initially at a concentration of 0.1 mg/mL using acetone as a diluent. Stock solutions were prepared with F1 as well as for each of the active ingredients individually. Test solutions were prepared from the stock solutions. Test solutions were prepared containing F1, the individual active ingredients, and mixtures of F1 with each of the active ingredients. The test solutions for F1 and the individual active ingredients were prepared by adding 500 μL of stock solution to a 25 mL glass vial, then adding 500 μL of acetone, followed by the addition of 9 mL water with 0.025% Tween® 20 to create a 0.0005% (w/v) solution. The test solutions containing mixtures of F1, and the individual active ingredients were prepared by adding 500 μL of the active ingredient stock solution to a 25 mL glass vial, followed by 500 μL of the F1 stock solution, then by the addition of 9 mL water with 0.025% Tween® 20 to create a test solution containing 0.0005% (w/v) F1 and 0.0005% (w/v) of the active ingredient. Each test solution was serially diluted to create desired doses of test solutions (0.0005% (w/v), 0.000125% (w/v), 0.00003125% (w/v), 0.0000078% (w/v), and 0.00000195% (w/v)).
The test solutions were tested against WFT using the following procedure: Leaf discs (2.7 cm in diameter) were cut from the true leaves of cotton plants. Leaf discs were dipped into the test solutions and shaken to ensure complete coverage of the leaf disc and then placed in Millipore® PetriSlides containing a filter paper disc. Treated leaf discs were air dried for approximately 1 hour. Each leaf disc was infested with 5 WFT (9-10-day old nymphs) by placement on each leaf disc, and the PetriSlides were capped to prevent escape. Each treatment was replicated three times and the test treatments were held at approximately 26° C. and ambient relative humidity (RH) prior to grading. Reference discs (solvent check) were treated with the diluent only. Evaluation was conducted by counting the number of live WFT under magnification 3 days after treatment. Percent control was measured using Abbott's correction formula (W. S. Abbott, J. Econ. Entomol. 18 (1925), pp. 265-267) as follows:
where X=No. of live nymphs on solvent check leaf discs and Y=No. of live nymphs on treated leaf discs. In Table B3 the “Expected % Control” was calculated using the method described in Colby S. R., Weeds, 1967, 15, 20-22. Bioassay 4: Corn Earworm (Helicoverpa zea, HELIZE, “CEW”), Fall Armyworm (Spodoptera frugiperda, LAPHFR, “FAW”), and Soybean Looper (Chrysodeixis includens, PSEPIN, “SBL”).

SMILES	Average % Control AI ([4]; 0.000004 wt %) [%]	Average % Control AI ([5]; 0.000004 wt %) [%]	Average % Control AI ([6]; 0.000004 wt %) [%]	Average % Control AI ([6]; 0.00004 wt %) [%]	Average % Control AI ([5]; 0.00004 wt %) [%]	also measured
COC(=O)N(OC)c1ccccc1COc1ccn(-c2ccc(Cl)cc2)n1 [Pyraclostrobin]						Average % Control AI ([1]; AI alone at 0.04 wt %): 0.0%; Average % Control AI ([2]; AI alone at 0.04 wt %): 0.0%
CO/C=C(/C(=O)OC)c1ccccc1Oc1cc(Oc2ccccc2C#N)ncn1 [Azoxystrobin]						Average % Control AI [3]: 0.0%
CC(COc1ccc(Oc2ccccc2)cc1)Oc1ccccn1 (centres unmarked) [Pyriproxyfen]	12.5	12.5	0.0	0.0		
CC1(C)[C@H](/C=C(\Cl)C(F)(F)F)[C@@H]1C(=O)O[C@@H](C#N)c1cccc(Oc2ccccc2)c1 [Lambda-cyhalothrin]	12.5	0.0	0.0		0.0	
COc1cccc(C(=O)NN(C(=O)c2cc(C)cc(C)c2)C(C)(C)C)c1C [Methoxyfenozide]	25.0	12.5	0.0	0.0	0.0	Average % Control AI ([7]; AI alone at 1:1 rate to F1 3.125 (10^-6 Wt %)): 4.8%
CC(C(=O)Nc1cn(-c2cccnc2)nc1Cl)S(C)(=O)=O (centres unmarked) [AI-2, N-(3-chloro-1-(pyridin-3-yl)-1H-pyrazol-4-yl)-2-(methylsulfonyl)propanamide]	0.0	0.0	0.0	0.0		
CCCC1COC(Cn2cncn2)(c2ccc(Cl)cc2Cl)O1 (centres unmarked) [Propiconazole]						Average % Control AI ([1]; AI alone at 0.4 wt %): 0.0%
CC(O)(Cn1cncn1)c1ccc(Oc2ccc(Cl)cc2)cc1C(F)(F)F (centres unmarked) [Mefentrifluconazole]						Average % Control AI ([1]; AI alone at 0.4 wt %): 0.0%; Average % Control AI [3]: 0.0%
CNC(=O)c1cc(C#N)cc(C)c1NC(=O)c1cc(Br)nn1-c1ncccc1Cl [Cyantraniliprole]	0.0	0.0	0.0	0.0	0.0	Average % Control AI ([4]; 0.00004 wt %): 0.0%; Average % Control AI ([7]; AI alone at 1:1 rate to F1 0.78 (10^-6 Wt %)): 0.0%
COc1ccc(Cl)c(S(=O)(=O)NC(=O)c2cn3cc(C(F)(F)F)cc(Cl)c3n2)c1 [Fluazain dolizine]						Average % Control AI [3]: 0.0%
[Cu+2].[OH-].[OH-] [Copper Hydroxide]						Average % Control AI ([2]; AI alone at 0.4 wt %): 0.0%
C/C(=N\C#N)N(C)Cc1ccc(Cl)nc1 [Acetamiprid]			0.0	0.0	0.0	Average % Control AI ([4]; 0.00004 wt %): 0.0%
FC(F)(F)c1ccc(COc2ncncc2C2OCCCO2)cc1 [Benzpyrimoxan]	0.0	0.0	0.0	0.0		
